Like-named read-outs stand apart in the source and are kept apart here.
Key:
[1] = rat, in vivo, po, 100 mg/kg
Source text: Blood was collected from the caudal vein periodicaly to determine the plasma concentration of metabolite.

Colon 26 cancer cells [2] = assay: Colon 26 tumor growth inhibition in tumor-bearing mice, oral; format: in vivo, female BALB/c mice; details: solution in Miglyol 812
Experimental: (§1) Tumor-bearing mice were provided by transplanting 1×10^5 Colon 26 cancer cells/animal in the flank of female 10-week-old BALB/c mice (Charles River Japan). […] On day 21, the tumor mass at the transplantation site was excised and weighed, and the tumor weight ratio relative to the untreated control group (T/C) was calculated. In addition, the tumor colonies metastasized to the lungs were counted and the median value in each group was compared with that in the untreated control group (T/C).

[3] = Plasma concentration of metabolite after oral compound A with or without famotidine pretreatment; format: in vivo, SD rats; details: famotidine-treated group, intragastric pH elevated, vs no famotidine
Experimental: Famotidine (Sigma) was administered subcutaneously to SD rats fasted overnight (dose; 10 mg/kg). […] Blood was serially drawn from the caudal vein to determine the plasma concentration of metabolites.

Colon 26 cancer cells [4] = assay: Lung metastasis (tumor colonies) in Colon 26 tumor-bearing mice, oral; format: in vivo, female BALB/c mice; details: for T/C (median number of tumor colonies metastasized to the lungs vs untreated control): oral once daily day 7 to day 20, sample solution in Miglyol 812, day 21
Experimental: as §1

In the case of `CO[C@@H]1[C@H](OC(=O)NC(=O)CCl)CC[C@]2(CO2)[C@H]1[C@@]1(C)O[C@@H]1CC=C(C)C` [Compound A, 6-O-(N-chloroacetylcarbamoyl)fumagillol], the “Plasma concentration of metabolite” value ([1]; 5 min) is reported as 15.7 ± 1.6 ng/mL, the “Plasma concentration of metabolite” value ([1]; 10 min) is reported as 17.3 ± 4.9 ng/mL and the “Plasma concentration of metabolite” value ([1]; 30 min) is reported as 5.8 ± 3.6 ng/mL. For the same molecule, the “Plasma concentration of metabolite” value ([1]; 60 min) was 0 ng/mL, the “effect on tumor growth inhibition” value (Colon 26 cancer cells [2]) was “potent and dose-dependent effect” and the absorption [3] was “marked increase in absorption”. For the same molecule, the “T/C (median number of tumor colonies metastasized to the lungs vs untreated control)” value (Colon 26 cancer cells [4]; 25 mg/kg) was 71%, the “T/C (median number of tumor colonies metastasized to the lungs vs untreated control)” value (Colon 26 cancer cells [4]; 50 mg/kg) was 52% and the “effect on tumor metastasis inhibition” value (Colon 26 cancer cells [4]; oral, solution in Miglyol 812) was “potent and dose-dependent effect”.

From patent US5846562A, “Oral composition of fumagillol derivative” (Takeda Chemical Industries, Ltd., priority 1996, dated 1998)
